Patent US20240254096A1, “ULTRAVIOLET AND VISIBLE RADIATION ABSORBING COMPOUNDS” (ELKIMIA INC., priority 2021, published 2024)
Values joined by “and” are separate entries in the source; they are usually repeats but may differ in a detail not shown here. Identical values can stand only once.

Test: Thermal stability by Thermogravimetric Analysis (TGA)
Assay type: physicochemical
Conditions: for T onset: by intersection points of tangents
Procedure: Briefly, the residual weight (%) of the compounds was measured at different temperatures, including 100° C. for water boiling, and other temperatures corresponding to extrusion processes, and the T onset (° C.) by intersection points of tangents was checked. The results are represented in Table 16 below, and in FIG. 6.

| Structure (SMILES) | Residual weight % at different temperatures (100 (° C.)) | Residual weight % at different temperatures (190 (° C.)) | Residual weight % at different temperatures (210 (° C.)) | Residual weight % at different temperatures (250 (° C.)) | T onset |
| --- | --- | --- | --- | --- | --- |
| CCOC(=O)CNC1=C/C(=N/c2ccc(Nc3ccccc3)cc2)CC(C)(C)C1 [Formula 47] | 99.5 w % | 99.2 w % | 99.0 w % | 79.5 w % | 226.0 C |
| CCCCCCCCOc1ccc(/N=C2/C=C(NC(Cc3ccccc3)C(=O)OC)CC(C)(C)C2)cc1 (centres unmarked) [Formula 69] | 99.3 w % | 95.2 w % | 88.0 w % | 82.5 w % | 193.6 C |
| CCOC(=O)CNC1=C/C(=N/c2ccccc2)CC(C)(C)C1 [Formula 46] | 99.4 w % | 99.1 w % | 98.4 w % | 52.4 w % | 215.2 C |
| COC(=O)C(Cc1ccccc1)NC1=C/C(=N/c2ccc(OC)cc2)CC(C)(C)C1 (centres unmarked) [Formula 68] | 97.9 w % | 93.6 w % | 87.3 w % | 75.0 w % | 197.2 C |
| CCOC(=O)CNC1=C/C(=N/c2ccc(OCc3ccccc3)cc2)CC(C)(C)C1 [Formula 49] | 99.3 w % | 97.8 w % | 97.2 w % | 70.2 w % | 215.3 C |
| CCOC(=O)CNC1=C/C(=N/c2ccc(Oc3ccccc3)cc2)CC(C)(C)C1 [Formula 50] | 99.2 w % | 98.1 w % | 97.9 w % | 69.3 w % | 229.5 C |
| COC(=O)C(Cc1ccccc1)NC1=C/C(=N/c2ccc(F)cc2)CC(C)(C)C1 (centres unmarked) [Formula 67] | 99.4 w % | 92.9 w % | 82.0 w % | 68.1 w % | 190.5 C |
| CCOC(=O)CNC1=C/C(=N/c2ccc(NC(=O)OC(C)(C)C)cc2)CC(C)(C)C1 [Formula 54] | 98.0 w % | 84.0 w % | 72.7 w % | 60.1 w % | 176.7 C |
| CCOC(=O)CNC1=C/C(=N/c2ccc(N3CCOCC3)cc2)CC(C)(C)C1 [Formula 48] | 99.2 w % | 98.8 w % | 97.8 w % | 72.9 w % | 215.7 C |
| CCOC(=O)CNC1=C/C(=N/c2ccc(Cn3cncn3)cc2)CC(C)(C)C1 [Formula 55] | 97.8 w % | 96.4 w % | 92.2 w % | 71.2 w % | 205.0 C |
| CCOC(=O)CNC1=C/C(=N/c2ccc3c(c2)OCCO3)CC(C)(C)C1 [Formula 56] | 99.4 w % | 98.9 w % | 94.3 w % | 68.0 w % | 207.6 C |

More lines, now with the values ahead:

| Residual weight % at different temperatures (100 (° C.)) | Residual weight % at different temperatures (190 (° C.)) | Residual weight % at different temperatures (210 (° C.)) | Residual weight % at different temperatures (250 (° C.)) | T onset | Structure (SMILES) |
| --- | --- | --- | --- | --- | --- |
| 97.8 w % | 85.6 w % | 77.0 w % | 58.2 w % | 168.9 C | CCOC(=O)C1CSC2=C(CC(C)(C)C/C2=N\c2ccc(OCc3ccccc3)cc2)N1 (centres unmarked) [Formula 60] |
| 99.5 w % | 96.1 w % | 85.8 w % | 65.1 w % | 188.0 C | CCOC(=O)CNC1=C/C(=N/c2ccc(C(C)=O)cc2)CC(C)(C)C1 [Formula 51] |
| 99.0 w % | 98.2 w % | 92.6 w % | 62.1 w % | 205.0 C | CCOC(=O)C1CSC2=C(CC(C)(C)C/C2=N\c2ccc(Oc3ccccc3)cc2)N1 (centres unmarked) [Formula 61] |
| 99.5 w % | 98.6 w % | 86.3 w % | 40.5 w % | 199.3 C | CCOC(=O)CNC1=C/C(=N/c2ccc(OC(F)(F)F)cc2)CC(C)(C)C1 [Formula 53] |
| 94.5 w % | 85.0 w % | 75.8 w % | 54.0 w % | 186.1 C | CCOC(=O)C1CSC2=C(CC(C)(C)C/C2=N\c2ccc(N3CCOCC3)cc2)N1 (centres unmarked) [Formula 62] |
| 95.3 w % | 91.7 w % | 89.3 w % | 80.3 w % | 200.2 C | CCOC(=O)C1CSC2=C(CC(C)(C)C/C2=N\c2ccc(Cn3cncn3)cc2)N1 (centres unmarked) [Formula 65] |
| 99.2 w % | 91.2 w % | 83.8 w % | 66.4 w % | 187.4 C | CCOC(=O)C1CSC2=C(CC(C)(C)CC2Nc2ccccc2)N1 (centres unmarked) [Formula 77] |
| 99.6 w % and 99.5 w % | 99.4 w % and 99.2 w % | 99.3 w % and 99.0 w % | 97.7 w % and 91.7 w % | 256.0 C and 248.2 C | C#Cc1ccc(NC2C=C(NCC(=O)OCC)CC(C)(C)C2)cc1 (centres unmarked) [Formula 76] |
| 95.9 w % | 92.4 w % | 86.0 w % | 63.2 w % | 199.1 C | CCOC(=O)CNC1=C/C(=N/c2ccc(N(C)C)cc2)CC(C)(C)C1 [Formula 52] |
| 97.2 w % | 87.7 w % | 80.3 w % | 60.9 w % | 187.0 C | CCOC(=O)C1CSC2=C(CC(C)(C)C/C2=N\c2ccc(Nc3ccccc3)cc2)N1 (centres unmarked) [Formula 64] |
| 98.7 w % | 97.3 w % | 88.4 w % | 68.0 w % | 197.4 C | C#Cc1ccc(/N=C2\CC(C)(C)CC3=C2SCC(C(=O)OCC)N3)cc1 (centres unmarked) [Formula 63] |
